Assay results as given in ChEMBL document CHEMBL2021793, “Synthesis, biological evaluation and structure-activity relationships of glycyrrhetinic acid derivatives as novel anti-hepatitis B virus agents” (Bioorg Med Chem Lett, 2012).

How the values were obtained:
Hepatitis B virus [1] = experiment: Antiviral activity against Hepatitis B virus infected in human HepG2(2.2.15) cells assessed as reduction in hepatitis B e-antigen release; assay type: functional, organism-based
[2] = Selectivity index, ratio of CC50 for human HepG2(2.2.15) cells to IC50 for HBV by viral DNA replication detection assay; assay type: functional
[3] = Cytotoxicity against human HepG2(2.2.15) cells; assay type: cell-based
Hepatitis B virus [4] = experiment: Antiviral activity against Hepatitis B virus infected in human HepG2(2.2.15) cells assessed as reduction in hepatitis B surface antigen release; assay type: functional, organism-based
Hepatitis B virus [5] = experiment: Antiviral activity against Hepatitis B virus infected in human HepG2(2.2.15) cells assessed as reduction in viral DNA replication; assay type: functional, organism-based
[6] = Selectivity index, ratio of CC50 for human HepG2(2.2.15) cells to IC50 for HBV by hepatitis B surface antigen release detection assay; assay type: functional

SMILES | IC50 (Hepatitis B virus [1]) [µM] | IC50 (Hepatitis B virus [4]) [µM] | IC50 (Hepatitis B virus [5]) [µM] | Ratio CC50/IC50 [2] | CC50 [3] [µM] | Ratio CC50/IC50 [6]
CC1(C)[C@@H](O)CC[C@]2(C)[C@H]3C[C@H]4O[C@]45[C@@H]4C[C@@](C)(C(=O)O)CC[C@]4(C)CC[C@@]5(C)[C@]3(C)CC[C@@H]12 | > 1810 | 43.3 | 18.4 | 1.9 | 35.7 | 
C=CCCOC(=O)[C@@]1(C)CC[C@]2(C)CC[C@]3(C)C(=CC(=O)[C@@H]4[C@@]5(C)CC[C@H](O)C(C)(C)[C@@H]5CC[C@]43C)[C@@H]2C1 | > 1750 | > 1750 | 332 | >5.3 | > 1750 | 
CCCCCCOC(=O)[C@@]1(C)CC[C@]2(C)CC[C@]3(C)C(=CC(=O)[C@@H]4[C@@]5(C)CC[C@H](O)C(C)(C)[C@@H]5CC[C@]43C)[C@@H]2C1 | > 1700 | > 1700 | 66.2 | 2.6 | 175 | 
CC1(C)[C@@H](O)CC[C@]2(C)[C@H]3C(=O)C=C4[C@@H]5C[C@@](C)(C(=O)OCC6CC6)CC[C@]5(C)CC[C@@]4(C)[C@]3(C)CC[C@@H]12 | > 1100 | 678 | 67 | 10.4 | 696 | 
CC1(C)[C@@H](O)CC[C@]2(C)[C@H]3C(=O)C=C4[C@@H]5C[C@@](C)(C(=O)OC6CCC6)CC[C@]5(C)CC[C@@]4(C)[C@]3(C)CC[C@@H]12 | > 1810 | 810 | 89.5 | 8.3 | 742 | 
CC1(C)[C@@H](O)CC[C@]2(C)[C@H]3C(=O)C=C4[C@@H]5C[C@@](C)(C(=O)OCCCBr)CC[C@]5(C)CC[C@@]4(C)[C@]3(C)CC[C@@H]12 | > 1390 | > 1390 | 28.6 | 5.6 | 160 | 
CC1(C)[C@@H](O)CC[C@]2(C)[C@H]3C(=O)C=C4[C@@H]5C[C@@](C)(C(=O)OCCOc6ccccc6)CC[C@]5(C)CC[C@@]4(C)[C@]3(C)CC[C@@H]12 | > 1180 | 57.4 | 14.2 | 7.1 | 101 | 1.8
CCOCCOC(=O)[C@@]1(C)CC[C@]2(C)CC[C@]3(C)C(=CC(=O)[C@@H]4[C@@]5(C)CC[C@H](O)C(C)(C)[C@@H]5CC[C@]43C)[C@@H]2C1 | > 1720 | 835 | 198 | 2.7 | 541 | 
CC1(C)[C@@H](O)CC[C@]2(C)[C@H]3C(=O)C=C4[C@@H]5C[C@@](C)(C(=O)OCC(N)=O)CC[C@]5(C)CC[C@@]4(C)[C@]3(C)CC[C@@H]12 | > 1120 | 40 | 28.8 | 1.9 | 55.3 | 1.4
CC1(C)[C@@H](O)CC[C@]2(C)[C@H]3C(=O)C=C4[C@@H]5C[C@@](C)(C(=O)OCCCCCCO)CC[C@]5(C)CC[C@@]4(C)[C@]3(C)CC[C@@H]12 | > 1250 | 129 | 47.7 | 1.4 | 67.3 | 
CC1(C)[C@@H](O)CC[C@]2(C)[C@H]3C(=O)C=C4[C@@H]5C[C@@](C)(C(=O)OCCCCCCCCO)CC[C@]5(C)CC[C@@]4(C)[C@]3(C)CC[C@@H]12 | > 1390 | 145 | 13.2 | 11.9 | 157 | 1.1
CCOC(=O)COC(=O)[C@@]1(C)CC[C@]2(C)CC[C@]3(C)C(=CC(=O)[C@@H]4[C@@]5(C)CC[C@H](O)C(C)(C)[C@@H]5CC[C@]43C)[C@@H]2C1 | > 1200 | > 1200 | 139 | >8.7 | > 1200 | 
CCOC(=O)CCCCCOC(=O)[C@@]1(C)CC[C@]2(C)CC[C@]3(C)C(=CC(=O)[C@@H]4[C@@]5(C)CC[C@H](O)C(C)(C)[C@@H]5CC[C@]43C)[C@@H]2C1 | > 1750 | 209 | 47.2 | 1.2 | 54.7 | 
CC1(C)C(=O)CC[C@]2(C)[C@H]3C(=O)C=C4[C@@H]5C[C@@](C)(C(=O)O)CC[C@]5(C)CC[C@@]4(C)[C@]3(C)CC[C@@H]12 | > 467 | 433 | 189 | 2.5 | 467 | 1.1
CC(=O)O[C@H]1CC[C@]2(C)[C@H]3C(=O)C=C4[C@@H]5C[C@@](C)(C(=O)O)CC[C@]5(C)CC[C@@]4(C)[C@]3(C)CC[C@H]2C1(C)C [ACETOXOLONE] | > 518 | 1000 | 121 | 4.3 | 518 | 

Now from value to molecule, other results behind:

IC50 (Hepatitis B virus [1]) [µM] | IC50 (Hepatitis B virus [4]) [µM] | IC50 (Hepatitis B virus [5]) [µM] | SMILES | Ratio CC50/IC50 [2] | CC50 [3] [µM] | Ratio CC50/IC50 [6]
> 2010 | > 2010 | 153 | CC1(C)[C@@H](O)CC[C@]2(C)[C@H]3C(=O)C=C4[C@@H]5C[C@@](C)(C(=O)OCc6ccccc6)CC[C@]5(C)CC[C@@]4(C)[C@]3(C)CC[C@@H]12 | 13.1 | 2010 | 
> 1850 | > 1850 | 529 | CC1(C)[C@@H](O)CC[C@]2(C)[C@H]3C(=O)C=C4[C@@H]5C[C@@](C)(C(=O)OCc6cccc(Cl)c6)CC[C@]5(C)CC[C@@]4(C)[C@]3(C)CC[C@@H]12 | >3.5 | > 1850 | 
> 986 | > 986 | 5.71 | CC1(C)[C@@H](O)CC[C@]2(C)[C@H]3C(=O)C=C4[C@@H]5C[C@@](C)(C(=O)OCc6ccc(I)cc6)CC[C@]5(C)CC[C@@]4(C)[C@]3(C)CC[C@@H]12 | >172.6 | > 986 | 
> 805 | > 805 | 18.1 | CC1(C)[C@@H](O)CC[C@]2(C)[C@H]3C(=O)C=C4[C@@H]5C[C@@](C)(C(=O)OCc6ccc(Br)cc6F)CC[C@]5(C)CC[C@@]4(C)[C@]3(C)CC[C@@H]12 | >79 | > 1430 | 
> 1370 | > 1370 | 5.36 | CC1(C)[C@@H](O)CC[C@]2(C)[C@H]3C(=O)C=C4[C@@H]5C[C@@](C)(C(=O)OCc6ccc(C(F)(F)F)cc6)CC[C@]5(C)CC[C@@]4(C)[C@]3(C)CC[C@@H]12 | >255.9 | > 1370 | 
> 1130 | > 1130 | 160 | CC1(C)[C@@H](O)CC[C@]2(C)[C@H]3C(=O)C=C4[C@@H]5C[C@@](C)(C(=O)OCc6ccc(OC(F)(F)F)cc6)CC[C@]5(C)CC[C@@]4(C)[C@]3(C)CC[C@@H]12 | >7.1 | > 1130 | 
> 1540 | > 1540 | 195 | CC1(C)[C@@H](O)CC[C@]2(C)[C@H]3C(=O)C=C4[C@@H]5C[C@@](C)(C(=O)OCc6ccccc6C#N)CC[C@]5(C)CC[C@@]4(C)[C@]3(C)CC[C@@H]12 | >7.9 | > 1540 | 
> 1700 | > 1700 | 15.3 | CC1(C)[C@@H](O)CC[C@]2(C)[C@H]3C(=O)C=C4[C@@H]5C[C@@](C)(C(=O)OCc6cccc7cccnc67)CC[C@]5(C)CC[C@@]4(C)[C@]3(C)CC[C@@H]12 | >111 | > 1700 | 
> 1360 | 1070 | 171 | CC1(C)[C@@H](O)CC[C@]2(C)[C@H]3C(=O)C=C4[C@@H]5C[C@@](C)(C(=O)OCc6cccnc6)CC[C@]5(C)CC[C@@]4(C)[C@]3(C)CC[C@@H]12 | 1.9 | 321 | 
> 1920 | 1010 | 298 | CC1(C)[C@@H](O)CC[C@]2(C)[C@H]3C(=O)C=C4[C@@H]5C[C@@](C)(C(=O)OCCO)CC[C@]5(C)CC[C@@]4(C)[C@]3(C)CC[C@@H]12 | 1.3 | 380 | 
